Each structure is given as a SMILES string. Where a name gives a salt, the structure may show the parent alone.

The nature of the data set: in vitro. To be noted: rat, gh3-tre-luc cells.

As a reminder, the CC50 is the concentration at which the toxic effect on the cells reaches its halfway point. A high value points to lower toxicity to the cells. In turn, `CC(C)=C1CC[C@@H](C)CC1=O` [R-(+)-Pulegone] returned a half-maximal cytotoxic concentration (CC50) at 24 h (AC50 (uM) modified / 1000) of more than 90 µM. On the same count and under the same terms, with `O=C[C@H](O)[C@@H](O)[C@H](O)[C@H](O)CO` (racemic) [DL-Glucose] the figure was more than 50 µM. The same measure, in the same setting: with `CCS(=O)(=O)CCn1c([N+](=O)[O-])cnc1C` [Tinidazole] the figure was more than 20 µM; with `O=[N+]([O-])c1ccc2ccc3cccc4ccc1c2c34` [1-Nitropyrene], more than 90 µM. As to `CNC(C)CC1CCCCC1` (racemic) [(+/-) Propylhexedrine], the CC50 at 24 h (AC50 (uM) modified / 1000, Tox21_110001=Tox21_113077, viability, 1 nM T3 present, 24 h) was more than 50 µM. The molecule `Cc1ccc2oc(CN(Cc3ccccc3)C(=O)Nc3c(F)cc(F)cc3F)c(-c3ccc(Cl)cc3)c2c1` [FR145237] returned a CC50 at 24 h (AC50 (uM) modified / 1000) of more than 80 µM. Still for that read-out and setting: with `CCOC(=O)NNc1nncc2ccccc12` [Todralazine hydrochloride] the figure was more than 50 µM.

As for `CNc1c2c(nn1C)CCCC2` [Tetridamine], the CC50 at 24 h (AC50 (uM) modified / 1000) is more than 50 µM. `C=CC(=O)CC` [Ethyl vinyl ketone]: the 50% cytotoxic concentration (CC50) at 24 h (AC50 (uM) modified / 1000) is more than 90 µM. Same read-out and setting: to `Cc1cc(S(=O)(=O)O)c(N)cc1Cl` [2-Amino-4-chloro-5-methylbenzenesulfonic acid] belongs more than 90 µM. Still for that read-out and setting: with `CC(Cl)(Cl)Cl` [1,1,1-Trichloroethane] the figure was more than 90 µM; with `CC(CN(C)C)CN1c2ccccc2Sc2ccccc21` (stereo not drawn) [Trimeprazine tartrate], 4.36 µM; with `O=C(O)c1nc(Cl)ccc1Cl` [Clopyralid], more than 90 µM.

On to `O=C1O[C@H]([C@@H](O)CO)C(O)=C1O` [L-Ascorbic acid], for which the cytotoxic concentration (CC50) at 24 h (AC50 (uM) modified / 1000) is more than 90 µM. Still for that read-out and setting: to `CC(=O)O[C@H]1CC[C@@]2(C)C(=CC[C@@H]3[C@@H]2CC[C@]2(C)C(c4cccnc4)=CC[C@@H]32)C1` [Abiraterone acetate] belongs more than 50 µM. Under “AC50 (uM) modified / 1000”, `COc1cc2c(Nc3ccc(Br)cc3F)ncnc2cc1OCC1CCN(C)CC1` [Vandetanib] returned a CC50 at 24 h of 3.74 µM. The same measure, in the same setting: to `CCCCCCCCOc1ccc(C(=O)c2ccccc2)c(O)c1` [Octabenzone] belongs more than 90 µM; to `CCCCCCC(O)CCCCCCCCCCC(=O)O` (stereo not drawn) [12-Hydroxyoctadecanoic acid], more than 90 µM; to `CCOC(=O)O[C@]1(C(=O)OCCl)CC[C@H]2[C@@H]3CCC4=CC(=O)C=C[C@]4(C)[C@H]3[C@@H](O)C[C@@]21C` [Loteprednol etabonate], more than 50 µM.

As for `CC(C)=CC1C(C(=O)OC(C#N)c2cccc(Oc3ccccc3)c2)C1(C)C` (stereo not drawn) [Cyphenothrin], the CC50 at 24 h (AC50 (uM) modified / 1000) was more than 90 µM.

In turn, `CC(NC(C)(C)C)C(=O)c1cccc(Cl)c1` (stereo not drawn) [Bupropion hydrochloride] came in with a CC50 at 24 h (AC50 (uM) modified / 1000) of more than 50 µM.

Turning to `CCOC(=O)[C@H](CCc1ccccc1)N[C@@H](C)C(=O)N1[C@H](C(=O)O)C[C@@H]2CCC[C@@H]21` [Ramipril], the CC50 at 24 h (AC50 (uM) modified / 1000) is more than 50 µM. Molecule `O=C(O)c1ccc(NC(=O)[C@H](Cc2ccc(O)cc2)NC(=O)c2ccccc2)cc1` [Bentiromide sodium] yielded a CC50 at 24 h (AC50 (uM) modified / 1000) of more than 50 µM. Consider `Nc1cc([N+](=O)[O-])ccc1C(=O)O` [4-Nitroanthranilic acid], for which the CC50 at 24 h (AC50 (uM) modified / 1000) is more than 90 µM. The same measure, in the same setting: with `CCCCCCOC(=O)CC(CC(=O)OCCCCCC)(OC(=O)CCC)C(=O)OCCCCCC` [Butyryl trihexyl citrate] the figure was more than 90 µM; with `COc1cc(C(=O)NS(=O)(=O)c2ccccc2C)ccc1Cc1cn(C)c2ccc(NC(=O)OC3CCCC3)cc12` [Zafirlukast], 28.8 µM. On the same count and under the same terms, with `CCCCCCC(O)CCCCCCCCCCC(=O)OC` (stereo not drawn) [Methyl 12-hydroxyoctadecanoate] the figure was more than 90 µM; with `CC(=O)N[C@@H](CCC(N)=O)C(=O)O` [Nalpha-Acetyl-L-glutamine], more than 50 µM; with `COC(=O)C(C)Oc1ccc(Oc2ccc(Cl)cc2Cl)cc1` (stereo not drawn) [Diclofop-methyl], more than 90 µM. `CC(=O)CC(c1ccc(Cl)cc1)c1c(O)c2ccccc2oc1=O` (stereo not drawn) [Coumachlor]: the CC50 at 24 h (AC50 (uM) modified / 1000, Tox21_110001=Tox21_301860, viability, 1 nM T3 present, 24 h) was more than 100 µM.
